Reference: patent US20250177408A1, “INHIBITOR OF INTERACTION BETWEEN YAP/TAZ AND TEAD, PREPARATION THEREOF, PHARMACEUTICAL COMPOSITION THEREOF AND USE THEREOF” (ETERN BIOPHARMA (SHANGHAI) CO., LTD., priority 2022, published 2025)

Key:
[1] = molecular target: YAP-TEAD protein interaction (His-TEAD1 (209-426) protein, Bio-YAP peptide (60-100)) (Homo sapiens, UniProt P28347); assay: YAP-TEAD protein interaction HTRF experiment; assay type: binding; details: His-TEAD1 (209-426) 10 nM, Bio-YAP peptide 50 nM, read-out: Activity of each compound in blocking YAP-TEAD protein interaction (grades of IC50 values)
In short: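 His-TEAD1 (209-426) at 10 nM final was preincubated 20 min at RT with compounds (10-point 3-fold dilutions, duplicates, 1% DMSO), then Bio-YAP peptide, 10 min. Anti-His-Eu cryptate/streptavidin-XL665 added for 1 h at RT; HTRF read at ex 320 nm, Em665/Em620 ratio ×10000, IC50 from % inhibition.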

MSTO-211H cells = assay: Cell proliferation inhibition experiment (CellTiter-Glo); assay type: cell-based; details: Homo sapiens, 96 hours, read-out: Inhibitory activity of each compound on the proliferation of MSTO-211H cells (grades of IC50 values)
In short: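 MSTO-211H cells (1500/well, RPMI1640 + 10% FBS) were plated overnight at 37° C, 5% CO2, then exposed in duplicate to 9 three-fold compound dilutions (DMSO ≤0.5% final) for 96 hours. Viability was read as CellTiter-Glo luminescence after 10 min at room temperature. IC50 was derived from inhibition of the CTG signal.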

Chain of YAP-TEAD protein interaction (His-TEAD1 (209-426) protein, Bio-YAP peptide (60-100)) (P28347 209-426): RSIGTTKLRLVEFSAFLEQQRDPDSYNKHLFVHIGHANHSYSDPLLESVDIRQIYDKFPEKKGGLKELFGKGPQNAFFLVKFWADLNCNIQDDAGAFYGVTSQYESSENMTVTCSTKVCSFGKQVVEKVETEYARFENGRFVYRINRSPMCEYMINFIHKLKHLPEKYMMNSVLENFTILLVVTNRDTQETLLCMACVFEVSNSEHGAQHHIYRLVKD

| Structure (SMILES) | IC50 [1] [nM] | IC50 (MSTO-211H cells) [nM] |
| --- | --- | --- |
| NC(=O)c1cc2c(c(F)c1-c1c(Cl)c(F)cc3c1C[C@](c1ccccc1)([C@@H]1CCCN1)O3)Oc1c(cnn(C3CC(F)(F)C3)c1=O)O2 (atropisomer, axis not shown) [Compound 147, (S)-8-((S)-5-Chloro-6-fluoro-2-phenyl-2-((S)-pyrrolidin-2-yl)-2,3-dihydrobenzofuran-4-yl)-2-(3,3-difluorocyclobutyl)-9-fluoro-1-oxo-1,2-dihydrobenzo[5,6][1,4]dioxa[2,3-d]pyridazine-7-carboxamide] | < 50 | < 200 |
| NC(=O)c1cc2c(c(F)c1-c1c(Cl)c(F)cc3c1C[C@](c1ccccc1)([C@@H]1CCCN1)O3)OCC21CCNCC1 (atropisomer, axis not shown) [Compound 44, (S)-6-((S)-5-Chloro-6-fluoro-2-phenyl-2-((S)-pyrrolidin-2-yl)-2,3-dihydrobenzofuran-4-yl)-7-fluoro-2H-spiro [benzofuran-3,4′-piperidine]-5-carboxamide] | 50 to 500 | > 5000 |
| NC(=O)c1cc2c(c(F)c1-c1c(Cl)c(F)cc3c1C[C@](c1ccccc1)([C@@H]1CCCN1)O3)Oc1c(cnn(CC(F)F)c1=O)O2 (atropisomer, axis not shown) [Compound 120, (S)-8-((S)-5-Chloro-6-fluoro-2-phenyl-2-((S)-pyrrolidin-2-yl)-2,3-dihydrobenzofuran-4-yl)-9-fluoro-2-(2,2-difluoroethyl)-1-oxo-1,2-dihydrobenzo[5,6][1,4]dioxo[2,3-d]pyridazine-7-carboxamide] | < 50 | < 200 |
| CNC(=O)c1cc2c(c(F)c1-c1c(Cl)c(F)cc3c1C[C@](c1ccccc1)([C@@H]1CCCN1)O3)Oc1c(cnn(CC(F)(F)F)c1=O)O2 (atropisomer, axis not shown) [Compound 144] | < 50 | < 200 |
| CNC(=O)c1cc2c(c(F)c1-c1c(Cl)c(F)cc3c1CC(c1ccccc1)(C1CCCN1)O3)Oc1c(cnn(C)c1=O)O2 [Compound 124, (S)-8-((S)-5-Chloro-6-fluoro-2-phenyl-2-((S)-pyrrolidin-2-yl)-2,3-dihydrobenzofuran-4-yl)-9-fluoro-N,2-dimethyl-1-oxo-1,2-dihydrobenzo[5,6][1,4]dioxo[2,3-d]pyridazine-7-carboxamide] | < 50 | < 200 |

The next lines start with results.

| IC50 [1] [nM] | Structure (SMILES) | IC50 (MSTO-211H cells) [nM] |
| --- | --- | --- |
| < 50 | Cn1ncc2c(c1=O)Oc1c(cc(C(N)=O)c(-c3c(Cl)c(F)cc4c3C[C@](c3ccccc3)([C@@H]3CCCN3)O4)c1F)O2 (atropisomer, axis not shown) [Compound 105, (S)-8-((S)-5-Chloro-6-fluoro-2-phenyl-2-((S)-pyrrolidin-2-yl)-2,3-dihydrobenzofuran-4-yl)-9-fluoro-2-methyl-1-oxo-1,2-dihydrobenzo[5,6][1,4]dioxo[2,3-d]pyridazine-7-carboxamide] | < 200 |
| < 50 | NC(=O)c1cc2c(c(F)c1-c1c(Cl)c(F)cc3c1C[C@](c1ccccc1)([C@@H]1CCCN1)O3)OCc1nncn1-2 (atropisomer, axis not shown) [Compound 42, (S)-7-((S)-5-Chloro-6-fluoro-2-phenyl-2-((S)-pyrrolidin-2-yl)-2,3-dihydrobenzofuran-4-yl)-6-fluoro-4H-benzo[b][1,2,4]triazolo[4,3-d][1,4]oxazine-8-carboxamide] | 500 to 5000 |
| < 50 | Cn1cc2c(n1)COc1c-2cc(C(N)=O)c(-c2c(Cl)c(F)cc3c2C[C@](c2ccccc2)([C@@H]2CCC(=O)N2)O3)c1F (atropisomer, axis not shown) [Compound 115, (S)-7-((S)-5-Chloro-6-fluoro-2-((S)-5-oxopyrrolidin-2-yl)-2-phenyl-2,3-dihydrobenzofuran-4-yl)-6-fluoro-2-methyl-2,4-dihydrochromeno[3,4-c]pyrazole-8-carboxamide] | 500 to 5000 |
